Assay results from US10894784B2, “Heteroarylbenzimidazole compounds” (BAYER PHARMA AKTIENGESELLSCHAFT, priority 2015, dated 2021).

These molecules were tested against TBK1 (Homo sapiens (Human), UniProt Q9UHD2) (assay: TBK1 low ATP kinase assay (in vitro assay 1)). Conditions: TBK1 low ATP kinase assay IC50, in vitro assay 1.
TBK1, sequence (Q9UHD2 whole entry): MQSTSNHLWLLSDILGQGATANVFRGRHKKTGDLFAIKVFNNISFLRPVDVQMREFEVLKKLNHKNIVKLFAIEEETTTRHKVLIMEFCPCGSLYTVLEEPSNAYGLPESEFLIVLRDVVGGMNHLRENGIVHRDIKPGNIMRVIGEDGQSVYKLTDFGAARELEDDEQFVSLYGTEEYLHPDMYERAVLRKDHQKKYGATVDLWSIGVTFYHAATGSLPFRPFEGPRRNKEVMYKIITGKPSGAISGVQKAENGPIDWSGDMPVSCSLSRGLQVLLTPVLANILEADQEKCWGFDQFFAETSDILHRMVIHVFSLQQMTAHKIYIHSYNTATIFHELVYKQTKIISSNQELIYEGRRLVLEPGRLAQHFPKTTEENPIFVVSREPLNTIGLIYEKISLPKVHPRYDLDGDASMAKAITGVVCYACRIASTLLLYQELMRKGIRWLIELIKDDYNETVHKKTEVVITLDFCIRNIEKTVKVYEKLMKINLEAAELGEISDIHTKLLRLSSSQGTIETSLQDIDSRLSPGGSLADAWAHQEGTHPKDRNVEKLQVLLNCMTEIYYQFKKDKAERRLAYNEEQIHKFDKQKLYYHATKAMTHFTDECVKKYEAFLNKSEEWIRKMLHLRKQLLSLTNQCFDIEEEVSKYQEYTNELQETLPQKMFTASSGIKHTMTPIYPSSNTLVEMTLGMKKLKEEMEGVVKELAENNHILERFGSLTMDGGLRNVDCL
Type: biochemical
An IC50 of 17.2 nM was found for `Cc1noc(-c2ccc3nc(Nc4cc(C(C)N5CCN(C(=O)CC(F)(F)F)CC5)ccn4)[nH]c3c2)n1` (single isomer, unassigned) [Example 16.06.02.B, 3,3,3-trifluoro-1-{4-[(1S or 1R)-1-(2-{[6-(3-methyl-1,2,4-oxadiazol-5-yl)-1H-benzimidazol-2-yl]amino}pyridin-4-yl)ethyl]piperazin-1-yl}propan-1-one] in this work. An IC50 of 18 nM was found for `Cc1cc(-c2ccc3nc(Nc4cc(C(C)N5CCN(C(=O)CC(F)(F)F)CC5)ccn4)[nH]c3c2)ncn1` (single isomer, unassigned) [Example 30.03.01.A, 3,3,3-trifluoro-1-{4-[(1R or 1S)-1-(2-{[6-(6-methylpyrimidin-4-yl)-1H-benzimidazol-2-yl]amino}pyridin-4-yl)ethyl]piperazin-1-yl}propan-1-one] in this work. An IC50 of 2.15 nM was found for `Cc1cc(-c2ccc3nc(Nc4cc(C(C)N5CCN(C(=O)CC(F)(F)F)CC5)ccn4)[nH]c3c2)ncn1` (single isomer, unassigned) [Example 30.03.01.B, 3,3,3-trifluoro-1-{4-[(1S or 1R)-1-(2-{[6-(6-methylpyrimidin-4-yl)-1H-benzimidazol-2-yl]amino}pyridin-4-yl)ethyl]piperazin-1-yl}propan-1-one] in this work.

Same assay, conditions: in vitro assay 1, read-out: TBK1 low ATP kinase assay IC50
An IC50 of 13.8 nM was found for `Cc1noc(-c2ccc3nc(Nc4cc(C(C)N5CCN(C(=O)C6CC6)CC5)ccn4)[nH]c3c2)n1` (single isomer, unassigned) [Example 16.06.03.A, cyclopropyl{4-[(1R or 1S)-1-(2-{[6-(3-methyl-1,2,4-oxadiazol-5-yl)-1H-benzimidazol-2-yl]amino}pyridin-4-yl)ethyl]piperazin-1-yl}methanone] in this work. An IC50 of 21.7 nM was found for `Cc1noc(-c2ccc3nc(Nc4cc(C(C)N5CCN(C(=O)C6(C(F)(F)F)CC6)CC5)ccn4)[nH]c3c2)n1` (single isomer, unassigned) [Example 16.06.04, {4-[(1R or 1S)-1-(2-{[6-(3-methyl-1,2,4-oxadiazol-5-yl)-1H-benzimidazol-2-yl]amino}pyridin-4-yl)ethyl]piperazin-1-yl}[1-(trifluoromethyl)cyclopropyl]methanone] in this work. An IC50 of 18.1 nM was found for `Cc1noc(-c2ccc3nc(Nc4cc(C(C)N5CCN(C(=O)C6CC6(F)F)CC5)ccn4)[nH]c3c2)n1` (single isomer, unassigned) [Example 16.06.05, ((1RS)-2,2-difluorocyclopropyl){4-[(1R or 1S)-1-(2-{[6-(3-methyl-1,2,4-oxadiazol-5-yl)-1H-benzimidazol-2-yl]amino}pyridin-4-yl)ethyl]piperazin-1-yl}methanone] in this work. An IC50 of 73 nM was found for `Cc1noc(-c2ccc3nc(Nc4cc(C(C)N5CCN(C(=O)C(C)(C)O)CC5)ccn4)[nH]c3c2)n1` (single isomer, unassigned) [Example 16.06.06, 2-hydroxy-2-methyl-1-{4-[(1R or 1S)-1-(2-{[6-(3-methyl-1,2,4-oxadiazol-5-yl)-1H-benzimidazol-2-yl]amino}pyridin-4-yl)ethyl]piperazin-1-yl}propan-1-one] in this work. An IC50 of 2.05 nM was found for `CC(c1ccnc(Nc2nc3ccc(-c4ccncn4)cc3[nH]2)c1)N1CCN(C(=O)C2CC2)CC1` (single isomer, unassigned) [Example 23.05.01.A, cyclopropyl{4-[(1R or 1S)-1-(2-{[6-(pyrimidin-4-yl)-1H-benzimidazol-2-yl]amino}pyridin-4-yl)ethyl]piperazin-1-yl}methanone] in this work. An IC50 of 12.4 nM was found for `CC(c1ccnc(Nc2nc3ccc(-c4ccncn4)cc3[nH]2)c1)N1CCN(C(=O)C2CC2)CC1` (single isomer, unassigned) [Example 23.05.01.B, cyclopropyl{4-[(1S or 1R)-1-(2-{[6-(pyrimidin-4-yl)-1H-benzimidazol-2-yl]amino}pyridin-4-yl)ethyl]piperazin-1-yl}methanone] in this work. An IC50 of 8.23 nM was found for `CC(c1ccnc(Nc2nc3ccc(-c4ccncn4)cc3[nH]2)c1)N1CCN(C(=O)CC(F)(F)F)CC1` (single isomer, unassigned) [Example 23.05.02.A, 3,3,3-trifluoro-1-{4-[(1R or 1S)-1-(2-{[6-(pyrimidin-4-yl)-1H-benzimidazol-2-yl]amino}pyridin-4-yl)ethyl]piperazin-1-yl}propan-1-one] in this work. An IC50 of 1.86 nM was found for `CC(c1ccnc(Nc2nc3ccc(-c4ccncn4)cc3[nH]2)c1)N1CCN(C(=O)CC(F)(F)F)CC1` (single isomer, unassigned) [Example 23.05.02.B, 3,3,3-trifluoro-1-{4-[(1S or 1R)-1-(2-{[6-(pyrimidin-4-yl)-1H-benzimidazol-2-yl]amino}pyridin-4-yl)ethyl]piperazin-1-yl}propan-1-one] in this work. An IC50 of 2.99 nM was found for `CC(c1ccnc(Nc2nc3ccc(-c4ccncn4)cc3[nH]2)c1)N1CCN(C(=O)C2CCC2)CC1` (single isomer, unassigned) [Example 23.05.03.A, cyclobutyl{4-[(1R or 1S)-1-(2-{[6-(pyrimidin-4-yl)-1H-benzimidazol-2-yl]amino}pyridin-4-yl)ethyl]piperazin-1-yl}methanone] in this work. An IC50 of 14.5 nM was found for `CC(c1ccnc(Nc2nc3ccc(-c4ccncn4)cc3[nH]2)c1)N1CCN(C(=O)C2CCC2)CC1` (single isomer, unassigned) [Example 23.05.03.B, cyclobutyl{4-[(1S or 1R)-1-(2-{[6-(pyrimidin-4-yl)-1H-benzimidazol-2-yl]amino}pyridin-4-yl)ethyl]piperazin-1-yl}methanone] in this work. An IC50 of 45.4 nM was found for `Cc1nccc(-c2ccc3nc(Nc4cc(C(C)N5CCN(C(=O)CC(F)(F)F)CC5)ccn4)[nH]c3c2)n1` (single isomer, unassigned) [Example 24.05.01.A, 3,3,3-trifluoro-1-{4-[(1R or 1S)-1-(2-{[6-(2-methylpyrimidin-4-yl)-1H-benzimidazol-2-yl]amino}pyridin-4-yl)ethyl]piperazin-1-yl}propan-1-one] in this work. An IC50 of 6.62 nM was found for `Cc1nccc(-c2ccc3nc(Nc4cc(C(C)N5CCN(C(=O)CC(F)(F)F)CC5)ccn4)[nH]c3c2)n1` (single isomer, unassigned) [Example 24.05.01.B, 3,3,3-trifluoro-1-{4-[(1S or 1R)-1-(2-{[6-(2-methylpyrimidin-4-yl)-1H-benzimidazol-2-yl]amino}pyridin-4-yl)ethyl]piperazin-1-yl}propan-1-one] in this work. An IC50 of 11 nM was found for `Cc1nccc(-c2ccc3nc(Nc4cc(C(C)N5CCN(C(=O)C6CCC6)CC5)ccn4)[nH]c3c2)n1` (single isomer, unassigned) [Example 24.05.02.A, cyclobutyl{4-[(1R or 1S)-1-(2-{[6-(2-methylpyrimidin-4-yl)-1H-benzimidazol-2-yl]amino}pyridin-4-yl)ethyl]piperazin-1-yl}methanone] in this work. An IC50 of 55.1 nM was found for `Cc1nccc(-c2ccc3nc(Nc4cc(C(C)N5CCN(C(=O)C6CCC6)CC5)ccn4)[nH]c3c2)n1` (single isomer, unassigned) [Example 24.05.02.B, cyclobutyl{4-[(1S or 1R)-1-(2-{[6-(2-methylpyrimidin-4-yl)-1H-benzimidazol-2-yl]amino}pyridin-4-yl)ethyl]piperazin-1-yl}methanone] in this work. An IC50 of 45.4 nM was found for `Cc1nccc(-c2ccc3nc(Nc4cc(C(C)N5CCN(C(=O)CC6CC6)CC5)ccn4)[nH]c3c2)n1` (single isomer, unassigned) [Example 24.05.03.A, 2-cyclopropyl-1-{4-[(1R or 1S)-1-(2-{[6-(2-methylpyrimidin-4-yl)-1H-benzimidazol-2-yl]amino}pyridin-4-yl)ethyl]piperazin-1-yl}ethanone] in this work. An IC50 of 13.8 nM was found for `Cc1nccc(-c2ccc3nc(Nc4cc(C(C)N5CCN(C(=O)CC6CC6)CC5)ccn4)[nH]c3c2)n1` (single isomer, unassigned) [Example 24.05.03.B, 2-cyclopropyl-1-{4-[(1S or 1R)-1-(2-{[6-(2-methylpyrimidin-4-yl)-1H-benzimidazol-2-yl]amino}pyridin-4-yl)ethyl]piperazin-1-yl}ethanone] in this work. An IC50 of 6.67 nM was found for `Cc1nccc(-c2ccc3nc(Nc4cc(C(C)N5CCN(C(=O)C6CC6)CC5)ccn4)[nH]c3c2)n1` (single isomer, unassigned) [Example 24.05.04.A, cyclopropyl{4-[(1R or 1S)-1-(2-{[6-(2-methylpyrimidin-4-yl)-1H-benzimidazol-2-yl]amino}pyridin-4-yl)ethyl]piperazin-1-yl}methanone] in this work. An IC50 of 33.9 nM was found for `Cc1nccc(-c2ccc3nc(Nc4cc(C(C)N5CCN(C(=O)C6CC6)CC5)ccn4)[nH]c3c2)n1` (single isomer, unassigned) [Example 24.05.04.B, cyclopropyl{4-[(1S or 1R)-1-(2-{[6-(2-methylpyrimidin-4-yl)-1H-benzimidazol-2-yl]amino}pyridin-4-yl)ethyl]piperazin-1-yl}methanone] in this work. An IC50 of 2.98 nM was found for `CCOc1nccc(-c2ccc3nc(Nc4cc(C(C)N5CCN(C(=O)CC(F)(F)F)CC5)ccn4)[nH]c3c2)n1` (single isomer, unassigned) [Example 26.03.01.A, 1-{4-[(1R or 1S)-1-(2-{[6-(2-ethoxypyrimidin-4-yl)-1H-benzimidazol-2-yl]amino}pyridin-4-yl)ethyl]piperazin-1-yl}-3,3,3-trifluoropropan-1-one] in this work. An IC50 of 19.5 nM was found for `CCOc1nccc(-c2ccc3nc(Nc4cc(C(C)N5CCN(C(=O)CC(F)(F)F)CC5)ccn4)[nH]c3c2)n1` (single isomer, unassigned) [Example 26.03.01.B, 1-{4-[(1S or 1R)-1-(2-{[6-(2-ethoxypyrimidin-4-yl)-1H-benzimidazol-2-yl]amino}pyridin-4-yl)ethyl]piperazin-1-yl}-3,3,3-trifluoropropan-1-one] in this work. An IC50 of 92.3 nM was found for `CC(c1ccnc(Nc2nc3ccc(-c4cc(C(F)(F)F)ncn4)cc3[nH]2)c1)N1CCN(C(=O)CC(F)(F)F)CC1` (single isomer, unassigned) [Example 29.02.01.A, 3,3,3-trifluoro-1-(4-{(1R or 1S)-1-[2-({6-[6-(trifluoromethyl)pyrimidin-4-yl]-1H-benzimidazol-2-yl}amino)pyridin-4-yl]ethyl}piperazin-1-yl)propan-1-one] in this work. An IC50 of 8.64 nM was found for `CC(c1ccnc(Nc2nc3ccc(-c4cc(C(F)(F)F)ncn4)cc3[nH]2)c1)N1CCN(C(=O)CC(F)(F)F)CC1` (single isomer, unassigned) [Example 29.02.01.B, 3,3,3-trifluoro-1-(4-{(1S or 1R)-1-[2-({6-[6-(trifluoromethyl)pyrimidin-4-yl]-1H-benzimidazol-2-yl}amino)pyridin-4-yl]ethyl}piperazin-1-yl)propan-1-one] in this work.
